Among the data in the SangsterLogP compilation are logP values, retold here.

SMILES strings stand for the structures.

In general, logP refers to a log measure of how a compound divides between an organic and an aqueous phase. The compound `CCC(C)NC(=O)C1CCCCC1c1nc(SC)n[nH]1` (stereo unspecified) displayed a logP of 2.97.
Take `CSc1n[nH]c(C2CCCCC2C(=O)Nc2ccccc2Cl)n1` (stereo unspecified): the logP came to 3.84.
The compound `CCCCNC(=O)C1CCCCC1c1nc(SC)n[nH]1` (stereo unspecified) gave a logP of 2.97.
The compound `COc1ccc(NC(=O)C2C3C=CC(C3)C2c2nc(SC)n[nH]2)cc1` (stereo unspecified) gave a logP of 2.86.
`CSc1n[nH]c(C2CCCCC2C(=O)NCc2ccccc2)n1` (stereo unspecified) showed a logP of 3.17.
Next, `CSc1n[nH]c(C2CCCCC2C(=O)Nc2ccc(Br)cc2)n1` (stereo unspecified): 4.02; `CCCNC(=O)C1C2C=CC(C2)C1c1nc(SC)n[nH]1` (stereo unspecified): 2.13; `COc1ccc(NC(=O)C2CCCCC2c2nc(SC)n[nH]2)cc1` (stereo unspecified): 3.19.
Next, `CCCCNC(=O)C1C2C=CC(C2)C1c1nc(SC)n[nH]1` (stereo unspecified): 2.55.
In turn, `CSc1n[nH]c(C2CCCCC2C(=O)Nc2ccccc2)n1` (stereo unspecified) came in with a logP of 3.3.
With `CCC(C)NC(=O)C1C2C=CC(C2)C1c1nc(SC)n[nH]1` (stereo unspecified) the figure was 2.57.
On to `CSc1n[nH]c(C2C3C=CC(C3)C2C(=O)NCc2ccccc2)n1` (stereo unspecified), for which the logP is 2.8.
With `CSc1n[nH]c(C2C3C=CC(C3)C2C(=O)Nc2cccc(C)c2)n1` (stereo unspecified) the figure was 3.29.
For `CSc1n[nH]c(C2CCCCC2C(=O)NC2CCCCC2)n1` (stereo unspecified), the logP was 3.48.
Take `CSc1n[nH]c(C2CCCCC2C(=O)NCCc2ccccc2)n1` (stereo unspecified): the log partition coefficient (logP) is 3.51.
As to `CSc1n[nH]c(C2C3C=CC(C3)C2C(=O)Nc2ccccc2)n1` (stereo unspecified), the logP stood at 2.91.
With `CSc1n[nH]c(C2C3C=CC(C3)C2C(=O)Nc2ccc(Br)cc2)n1` (stereo unspecified) the figure was 3.67.
Compound `CSc1n[nH]c(C2C3C=CC(C3)C2C(=O)NC2CCCCC2)n1` (stereo unspecified) yielded a logP of 3.03.
Compound `CSc1n[nH]c(C2C3C=CC(C3)C2C(=O)Nc2ccccc2Cl)n1` (stereo unspecified) came in with a logP of 3.44.
Next, `CSc1n[nH]c(C2C3C=CC(C3)C2C(=O)NCCc2ccccc2)n1` (stereo unspecified): 3.12.
On to `CCCNC(=O)C1CCCCC1c1nc(SC)n[nH]1` (stereo unspecified), for which the logP is 2.55.
